Tested on: NCI-H719 tumor spheroids, viability
Test: Anticancer human tumor NCI-H719 cell line growth inhibition;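 note: spheroids exposed to compounds for seven days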;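 for viability, T/C: percent viability relative to DMSO vehicle control as 100%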
Conditions: spheroids with HUVEC and MSC; for IC50: curve of first compound; for viability, T/C: stronger effect = lower value
Outline: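 Single agents and combinations were tested on spheroids built from tumor cells plus HUVEC and hMSC, at half-log dilutions starting at or near clinical Cmax, else 10 microM; final DMSO 0.25% (v/v).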

Compound CNCc1ccc(-c2cc(-c3nc(-c4ccc(S(=O)(=O)C(C)C)cc4)cnc3N)on2)cc1 + CC[C@@]1(O)C(=O)OCc2c1cc1n(c2=O)Cc2cc3c(CN(C)C)c(O)ccc3nc2-1 has an IC50 (second compound 0.003 µM) of 11.2 nM, an IC50 (second compound 0.00949 µM) of under 9.49 nM and an IC50 (second compound 0.03 µM) of under 9.49 nM. The IC50 (second compound 0.0949 µM) was under 9.49 nM, the IC50 (second compound 0.3 µM) was under 9.49 nM and the viability, T/C (second compound 0.003 µM, first compound 0.00949 µM) was 51%. The viability, T/C (second compound 0.003 µM, first compound 0.03 µM) was 42.9%, the viability, T/C (second compound 0.003 µM, first compound 0.0949 µM) was 15.8% and the viability, T/C (second compound 0.003 µM, first compound 0.3 µM) was 7.57%. It also gave a viability, T/C (second compound 0.003 µM, first compound 0.949 µM) of 6.32%, a viability, T/C (second compound 0.003 µM, first compound 3 µM) of 0.12% and a viability, T/C (second compound 0.00949 µM, first compound 0.00949 µM) of 12.4%. It also gave a viability, T/C (second compound 0.00949 µM, first compound 0.03 µM) of 6.06%, a viability, T/C (second compound 0.00949 µM, first compound 0.0949 µM) of 6.36% and a viability, T/C (second compound 0.00949 µM, first compound 0.3 µM) of 7.36%. The viability, T/C (second compound 0.00949 µM, first compound 0.949 µM) was 7.1%, the viability, T/C (second compound 0.00949 µM, first compound 3 µM) was 0.13% and the viability, T/C (second compound 0.03 µM, first compound 0.00949 µM) was 5.87%. It also gave a viability, T/C (second compound 0.03 µM, first compound 0.03 µM) of 9.07%, a viability, T/C (second compound 0.03 µM, first compound 0.0949 µM) of 6.09% and a viability, T/C (second compound 0.03 µM, first compound 0.3 µM) of 8.62%. For the same compound, the viability, T/C (second compound 0.03 µM, first compound 0.949 µM) was 7.57%, the viability, T/C (second compound 0.03 µM, first compound 3 µM) was 0.1% and the viability, T/C (second compound 0.0949 µM, first compound 0.00949 µM) was 5.51%. For the same compound, the viability, T/C (second compound 0.0949 µM, first compound 0.03 µM) was 6.14%, the viability, T/C (second compound 0.0949 µM, first compound 0.0949 µM) was 7.1% and the viability, T/C (second compound 0.0949 µM, first compound 0.3 µM) was 8.34%. It also gave a viability, T/C (second compound 0.0949 µM, first compound 0.949 µM) of 8.45%, a viability, T/C (second compound 0.0949 µM, first compound 3 µM) of 0.11% and a viability, T/C (second compound 0.3 µM, first compound 0.00949 µM) of 6.1%. The viability, T/C (second compound 0.3 µM, first compound 0.03 µM) was 6.24%, the viability, T/C (second compound 0.3 µM, first compound 0.0949 µM) was 7.61% and the viability, T/C (second compound 0.3 µM, first compound 0.3 µM) was 8.16%. For the same compound, the viability, T/C (second compound 0.3 µM, first compound 0.949 µM) was 6.89% and the viability, T/C (second compound 0.3 µM, first compound 3 µM) was 0.15%.
